Experimental data published in US20120322150A1, “Mechanism and Method for Regulating Glycogen Synthase Kinase 3 (GSK3)-Related Kinases” (CARNEGIE INSTITUTION OF WASHINGTON, priority 2009, published 2012).
Peptide text beside a SMILES is read from it. * marks the point of attachment. Cbz = O=C(OCc1ccccc1)*

Legend:
BIN2 [1] = experiment: Immunoblotting of 2-DE of TAP-BIN2 from BL-treated plants; format: in vivo, Arabidopsis; details: 0.25 μM BL, 2 hrs, TAP-BIN2 transgenic plants
Description: Total proteins were extracted from BL-treated or untreated 35S::TAP-BIN2 plants for two-dimensional gel electrophoresis (2-DE) as described previously. The amount of BL-treated and untreated TAP-BIN2 proteins was normalized with Western blot. Equal amount of TAP-BIN2 proteins was separated by 2-DE using an immobilized pH gradient gel strip (7 cm, pH 3-10 non-linear) and 7.5% SDS-PAGE gel. The blots were probed with anti-PAP antibody (Sigma, St. Louis, Mo.).

AtSK12 [2] = experiment: AtSK12 protein accumulation in transgenic plants; format: in vivo, Arabidopsis; set-up: dose or concentration left out as unconfirmed; details: AtSK12-myc plants; BRZ medium for 5 days; BL for 30 min
Experimental: (§1) Plant materials were ground with liquid nitrogen and resuspended in IP buffer (50 mM Tris, pH 7.5, 150 mM NaCl, 5% Glycerol, 1% Triton X-100, 1 mM PMSF and 1× protease inhibitor cocktail (Sigma)). Filtered protein extracts were centrifuged at 20,000 g for 10 min and resulting supernatant was incubated with anti-GFP antibody bound Protein A beads or anti-myc agarose beads for 1 hr. Beads were washed 5 times with washing buffer (50 MM Tris, pH 7.5, 150 mM NaCl, 0.2% Triton X-100, 1 mM PMSF and 1× Protease inhibitor cocktail). The beads were resuspended with a small volume of kinase buffer (20 mM Tris, pH 7.5, 1 mM MgCl2, 100 mM NaCl and) mM DTT) and used for in vitro phosphatase assays, or immunoprecipitated proteins were eluted with buffer containing 2% SDS and analyzed by SDS-PAGE and immunoblotting.

BIN2 [3] = experiment: BIN2-myc / bin2-1-myc degradation in transgenic plants; format: in vivo, Arabidopsis
Experimental: as §1

AtSK12 [4] = experiment: pTyr dephosphorylation of AtSK12 in plants; format: in vivo, Arabidopsis; details: 10 μM MG132 then 0.25 μM BL
Experimental: as §1

BIN2 [5] = experiment: pTyr200 of BIN2 in plants after BL treatment; format: in vivo, Arabidopsis; details: in the presence of MG132; 0.2 or 0.25 μM BL
Experimental: as §1
GST-BIN2 or GST-bin2-1 was incubated with MBP-BSU1 or BSU1-YFP beads for 3 Ins and subjected to immunoblotting. pTyr200 residue of BIN2 was detected by anti-phospho-GSK3a/f3 (Tyr279/216) monoclonal antibody, 5G-2F (Millipore, Temecula, Calif.) and re-probed with HRP conjugated anti-GST antibody (Santa Cruz Biotechnology, Santa Cruz, Calif.). The det2 plants were treated with 0.2 μM BL after 1 hr incubation with 10 μM MG 132. AntiBIN2 serum was developed in rabbits using GST-BIN2 as an immunogen. Monoclonal anti-GSK3α/β antibody was purchased from Invitrogen (Carlsbad, Calif.).

BSU1 and BIN2 = experiment: Co-immunoprecipitation of BSU1-YFP and BIN2-myc after BL treatment; format: in vivo, Arabidopsis; details: plants grown on BRZ, 10 μM MG-132 1 hr, 0.2 μM BL 15 min
Experimental: as §1

BIN2 [6] = experiment: BIN2-myc / bin2-1-myc protein level in transformed tobacco leaves; format: in vivo; details: 1 μM BL for 1 hr
Experimental: Transformation by Agrobacterium infiltration, observations of subcellular localization and BiFC signal in tobacco or Arabidopsis were performed as described previously 5. Fluorescence of YFP was visualized by using a spinning-disk confocal microscope (Leica Microsystems, Heerbruag, Germany).

BIN2 [7] = target: T1, BIN2 (Arabidopsis thaliana, UniProt Q39011); experiment: In vitro BIN2 inhibition assay (BIN2 phosphorylation of BZR1); format: biochemical; details: BSU1-YFP immunoprecipitated from plants treated with BL versus untreated plants
T1 construct: made in house; host or cells: E. coli
T1 sequence (Q39011 1-380): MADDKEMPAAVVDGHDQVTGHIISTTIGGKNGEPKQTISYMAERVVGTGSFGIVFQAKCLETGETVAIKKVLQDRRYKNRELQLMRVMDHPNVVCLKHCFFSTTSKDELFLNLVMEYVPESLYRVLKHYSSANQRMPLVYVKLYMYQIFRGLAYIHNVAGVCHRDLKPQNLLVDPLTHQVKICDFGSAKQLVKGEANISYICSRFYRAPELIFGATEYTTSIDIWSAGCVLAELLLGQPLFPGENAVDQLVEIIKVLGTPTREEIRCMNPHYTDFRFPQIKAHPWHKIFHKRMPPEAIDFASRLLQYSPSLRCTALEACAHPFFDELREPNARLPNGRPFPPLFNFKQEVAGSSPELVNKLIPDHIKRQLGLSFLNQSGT
Experimental: In vitro BIN2 inhibition assays were performed by 3 hrs co-incubation of MBP-BZR1, GST BIN2, GST BSU1 and ^32P-γATP or pre-incubation of GST-BIN2 with GST-BSU1 for various time followed by adding MBP-BZR1 and 32P-γATP. The examine activities of partial BSU1, N-terminal Kelch (1-363th amino acid) and C-terminal phosphatase (364-793th amino acid) region were used. GST, GST-BSU1, GSTBSU1-Ketch and GST-BSU1-phosphatase were pre-incubated with GST-BIN2 for 1 hr, and further incubated with MBP-BZR1 and ^32P-γATP for 3 hrs.
To test activities of BSU1-YFP, anti-GFP antibody-Protein A beads were used to immunoprecipitate BSU1-YFP from extracts of BSU1-YFP transgenic plants, and non-transgenic wild type plants were used as control. The beads were incubated with GST-BIN2 or GST bin2-1 for 1 hr, and then the beads were removed. The BSU1-treated GST-BIN2 or GST-bin2-1 was further incubated with MBP-BZR1 and ^32P-γATP for 3 hrs.

BIN2 [8] = target: T1, BIN2; experiment: PP1 dephosphorylation of GST-tagged BIN2; format: biochemical; details: PP1 purified from E. coli
Experimental: (§2) It was next examined whether the mammalian homolog to BSU1, PP1, would dephosphorylate BIN2. A GST-tagged BIN2 was isolated from cells and incubated with PP1 purified from E. coli cells expressing the phosphatase.

PP1 = target: T2, PP1 (Homo sapiens, UniProt P36873); experiment: Inhibition of PP1 activity on BIN2; format: biochemical, mammalian
T2 construct: made in house; host or cells: E. coli
T2 sequence (P36873 whole entry): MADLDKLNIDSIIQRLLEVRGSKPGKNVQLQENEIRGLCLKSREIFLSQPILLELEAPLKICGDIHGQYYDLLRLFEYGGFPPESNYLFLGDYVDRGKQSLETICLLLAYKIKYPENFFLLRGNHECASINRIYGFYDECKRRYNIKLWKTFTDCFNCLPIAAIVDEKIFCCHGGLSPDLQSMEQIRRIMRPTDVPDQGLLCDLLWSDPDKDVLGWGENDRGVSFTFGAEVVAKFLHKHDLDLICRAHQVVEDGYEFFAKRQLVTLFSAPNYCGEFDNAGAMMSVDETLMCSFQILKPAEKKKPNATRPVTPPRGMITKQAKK
Experimental: as §2

## CC(C)[C@H](C)[C@@H](O)[C@H](O)[C@@H](C)[C@H]1CC[C@H]2[C@@H]3COC(=O)[C@H]4C[C@H](O)[C@H](O)C[C@]4(C)[C@H]3CC[C@]12C [BL, brassinolide]
BIN2 [1]
  phosphorylation forms of epitope-tagged BIN2 protein: caused disappearance of the acidic forms and an increase of the basic forms
AtSK12 [2]
  AtSK12 protein stability: destabilized
BIN2 [3]; transgenic plants, 0.25 μM BL for 30 min
  degradation of BIN2 and bin2-1: induces degradation of BIN2 but not bin2-1
AtSK12 [4]
  phosphorylation of AtSK12 Tyr233: greatly reduced phosphorylation of AtSK12 Tyr233
BIN2 [5]
  phosphorylation of Tyr200 of wild type BIN2 or BIN2-myc in plants: reduced the phosphorylation of Tyr200
BSU1 and BIN2
  interaction of BSU1 and BIN2: BR-induced interaction of BSU1 and BIN2
BIN2 [6]
  level of BIN2 and bin2-1 proteins: reduces the level of BIN2 but not bin2-1 proteins
BIN2 [7]
  BIN2-inhibiting activity of BSU1-YFP from BL-treated plants: more effective inhibition of BIN2 phosphorylation of BZR1

## CC(C)C[C@@H](C=O)NC(=O)[C@H](CC(C)C)NC(=O)[C@H](CC(C)C)NC(=O)OCc1ccccc1 [MG132] (Cbz-Leu-Leu-Leu-aldehyde)
BIN2 [3]; proteasome inhibitor, 10 μM
  BR-induced BIN2 depletion: prevents BR-induced BIN2 depletion

## CC(O)(c1ccccc1)C(Cc1ccc(Cl)cc1)n1cncn1 (stereo not drawn) [brassinazole]
AtSK12 [2]
  AtSK12 protein stability: stabilized

## PP1: mammalian homolog to BSU1, protein phosphatase-1, purified from E. coli
BIN2 [8]
  dephosphorylation of BIN2 tyrosine200: increased dephosphorylation of BIN2 tyrosine200

## manganese chloride
PP1
  enzymatic activity of PP1 on BIN2: also inhibited the enxymatic activity of PP1 on BIN2
